# Data as given in patent US20140148504A1, “NOVEL USE OF FLAVONE-BASED COMPOUND” (Industry-Academic Cooperation Foundation, Younsei University, priority 2011, published 2014).
# Assays:
# [1] = test system: Collagenase-1 (Matrix Metalloproteinase-1, MMP-1); assay: Inhibition of UV-induced Collagenase-1 (MMP-1) production in human fibroblasts (ELISA kit); format: cell-based; conditions: 15 mJ UV, 20 μM flavones, 20 μg/ml ethanol extract, FIG. 11
# Protocol: (§1) Firstly, human fibroblasts were placed in a 96-well microtiter plate (5,000 cells/well) containing DMEM (Dulbecco's Modified Eagle's Media) which comprises 2.5% bovine fetal serum, and cultured until they reached a growth rate of around 90%. Then, the cells were treated for 24 hours in serum-free DMEM containing 20 μM of 5,7-dimethoxyflavone, 20 μM 5,7,4′-trimethoxyflavone, 20 μM 3,5,7,3′,4′-pentamethoxyflavone and 20 μg/ml of the ethanol extract of Kaempferia parviflora of Examples 1-4, respectively, and followed by the exposure to 15 mJ of UV. Subsequently, the cells were additionally treated with serum-free DMEM containing 20 μM of 5,7-dimethoxyflavone, 20 μM 5,7,4′-trimethoxyflavone, 20 μM 3,5,7,3′,4′-pentamethoxyflavone and 20 μg/ml of the ethanol extract of Kaempferia parviflora of Examples 1-4, respectively. After 24 hours, the cell culture was collected and centrifuged to obtain the supernatant.
# For the resulting supernatant, the degree of Collagenase-1 (MMP-1) production was observed by Collagenase-1 Measurement Kit (QIA55, Merch & Co., USA). Firstly, the above obtained cell culture was placed in a 96-well plate evenly coated with primary antibodies against Collagenase-1 (MMP-1), followed by antigen-antibody reaction for 2 hours at room temperature. After 2 hours, primary antibodies against collagen with fluorescence were added to the said 96-well plate for 1 hour. After 1 hour, a substance inducing color formation was added and left for 30 minutes at room temperature. Then, a termination buffer was added to discontinue the color formation, resulting in the formation of yellow color. The degree of yellow color varied depending on the degree of the said reaction process. Absorbance of the 96-well plate showing yellow color was measured with an absorptiometer at 450 nm.
# [2] = test system: Procollagen Type-I C Peptide (PIP); assay: Enhancing effect on collagen production (Procollagen Type-I C Peptide ELISA) in UV-exposed human fibroblasts; format: cell-based; conditions: 15 mJ UV, 20 μM flavones, 20 μg/ml ethanol extract, PIP in supernatant
# Protocol: as §1, with “supernatant. For the obtained supernatant, the production of Procollagen Type-I C Peptide (PIP), an indicator of collagen production, was quantitatively measured by ELISA kit (MK101, Takara Bio Ink., Japan) so as to observe their effect on collagen production.” for “supernatant.”
# Firstly, antibody-PIP conjugates tagged to peroxidase were added to a 96-well plate evenly coated with mouse monoclonal antibodies against Procollagen. Then, the above obtained cell culture was added and reacted for 3 hours in an incubator, followed by the addition of substrate solution for color formation. Upon staying for 15 minutes at room temperature, the reaction was ended after the addition of reaction termination solution. Absorbance was measured with an absorptiometer at 450 nm.
# [3] = test system: hairless mice (Hos: HR-1); assay: In vivo improvement of UV-induced wrinkles, application onto the skin (skin replicas, Skin Visiometer); conditions: UV-exposed hairless mice; for wrinkle formation (skin replicas) in comparison with UV-treated Group: 50 μL applied onto the back every day for 8 weeks, FIG. 12; for Rt, Rm, Rz and Ra values (degree of wrinkle formation): skin application for 8 weeks, p<0.05, FIGS. 13A-13D
# Protocol: (§2) Forty eight (48) 6-week-old female hairless mice (Hos: HR-1) were accustomed for a week and randomly divided into six (6) groups, eight (8) mice per each group. The hairless mice were exposed to UV for 8 weeks. UV irradiation was carried out 3 times a week, while the amount of UV irradiation was increased from 1 MED (1 MED=50 mJ/cm^2) to 4 MED which was then kept until the end of the test. Test groups were divided into a total of six groups, i.e. Non UV-treated Group, UV-treated Group, UV+5,7-dimethoxyflavone-treated Group, UV+5,7,4′-trimethoxyflavone-treated Group, UV+3,5,7,3′,4′-pentamethoxyflavone-treated Group, and UV+ethanol extract of Kaempferia parviflora-treated Group. Each sample was dissolved in a mixture solvent of ethanol and polyethylene glycol (7:3, v/v), and 50 μL of each sample was applied onto the back of the mice every day for 8 weeks. For the Non UV-treated group and the UV-treated group, 50 μL of a mixture of ethanol and polyethylene glycol (7:3, v/v) was applied. In order to test the preventative effect of wrinkle formation, skin replicas were taken using silicone polymer (SILFLO Impression Material, Flexico, England). The image files of the skin replicas were subjected to wrinkle evaluation using the computer imaging analysis system, i.e. Skin Visiometer SV 600 software (Courage+Khazaha Electronic, Kln, Germany). Rt, Rm, Rz and Ra values (Rt: the distance from the highest and lowest portions on the skin surface, Rm: the maximum Rt value among five (5) measurements, Rz: the mean Rt value of five measurements, Ra: the arithmetic mean value of surface roughness) were determined The results are shown in FIGS. 12 and 13A to 13D.
# [4] = test system: hairless mice (Hos: HR-1); assay: In vivo improvement of UV-induced wrinkles, oral administration (skin replicas, Skin Visiometer); conditions: UV-exposed hairless mice, oral daily for 8 weeks, flavones 50 mg/kg/day, extract 200 mg/kg/day; for wrinkle formation (skin replicas) compared with UV-treated Group: FIG. 14; for Rt, Rm, Rz and Ra values (degree of wrinkle formation): p<0.05, FIGS. 15A-15D
# Protocol: (§3) To the hairless mice exposed to UV in Example 7-1,5,7-dimethoxyflavone (50 mg/kg/day), 5,7,4′-trimethoxyflavone (50 mg/kg/day), 3,5,7,3′,4′-pentamethoxyflavone (50 mg/kg/day) and the ethanol extract of Kaempferia parviflora (200 mg/kg/day) dissolved in 0.5% carboxymethyl cellulose solution containing 5% Tween 80 were orally administered daily for 8 weeks. For the control groups (Non UV-treated Group and UV-treated Group), 0.5% carboxymethyl cellulose solution was administered. In order to test the preventative effect of wrinkle formation, skin replicas were taken using silicone polymer (SILFLO Impression Material, Flexico, England). The image files of the skin replicas were subjected to wrinkle evaluation using the computer imaging analysis system, i.e. Skin Visiometer SV 600 software (Courage+Khazaha Electronic, Kln, Germany).
# [5] = test system: hairless mice (Hos: HR-1); assay: UV-induced Trans-Epidermal Water Loss (TEWL), application onto the skin (Tewameter); format: in vivo; conditions: UV-exposed hairless mice, skin application for 8 weeks; back skin
# Protocol: as §2
# By using Tewameter (TM 300, Courage+Khazaha Electronic, Kln, Germany), Trans-Epidermal Water Loss (TEWL) was measured on the back of the mice in Example 7-1.
# [6] = test system: hairless mice (Hos: HR-1); assay: UV-induced Trans-Epidermal Water Loss (TEWL), oral administration (Tewameter); format: in vivo; conditions: UV-exposed hairless mice, oral daily for 8 weeks; flavones 50 mg/kg/day, extract 200 mg/kg/day
# Protocol: as §3
# By using Tewameter (TM 300, Courage+Khazaha Electronic, Kln, Germany), Trans-Epidermal Water Loss (TEWL) was measured on the back of the mice in Example 7-2.
# [7] = test system: hairless mice (Hos: HR-1); assay: Skin elasticity, application onto the skin (Cutometer); format: in vivo; conditions: UV-exposed hairless mice, skin application for 8 weeks; Non UV-treated Group = 100
# Protocol: as §2
# By using Cutometer (MPA 580, Courage+Khazaha Electronic, Germany), skin elasticity was measured on the back of the mice in the above Example 7-1 and compared with Non UV-treated Group.
# [8] = test system: hairless mice (Hos: HR-1); assay: Skin elasticity, oral administration (Cutometer); format: in vivo; conditions: UV-exposed hairless mice, oral daily for 8 weeks; flavones 50 mg/kg/day, extract 200 mg/kg/day; Non UV-treated Group = 100
# Protocol: as §3
# By using Cutometer (MPA 580, Courage+Khazaha Electronic, Germany), skin elasticity was measured on the back of the mice in Example 7-2 and compared with Non UV-treated Group.
smiles,measurement,setting,value
"COc1cc(OC)c2c(=O)c(OC)c(-c3ccc(OC)c(OC)c3)oc2c1 [3,5,7,3′,4′-pentamethoxyflavone]",inhibition of Collagenase-1 (MMP-1) activity induced by UV light,[1],excellent for inhibiting Collagenase-1 (MMP-1) activity
same,Content of Collagen,[2],226.5 ng/10^5 cell
same,wrinkle formation (skin replicas) in comparison with UV-treated Group,[3],remarkable decrease in wrinkle formation
same,"Rt, Rm, Rz and Ra values (degree of wrinkle formation)",[3],significantly reduced
same,wrinkle formation (skin replicas) compared with UV-treated Group,[4],remarkable decrease in wrinkle formation
same,"Rt, Rm, Rz and Ra values (degree of wrinkle formation)",[4],significantly reduced
same,TEWL,[5],22.0 g/m^2/hr
same,TEWL,[6],20.3 g/m^2/hr
same,Degree of skin elasticity,[7],72.3%
same,Degree of skin elasticity,[8],81.7%
"COc1ccc(-c2cc(=O)c3c(OC)cc(OC)cc3o2)cc1 [5,7,4′-trimethoxyflavone]",inhibition of Collagenase-1 (MMP-1) activity induced by UV light,[1],excellent for inhibiting Collagenase-1 (MMP-1) activity
same,Content of Collagen,[2],230.0 ng/10^5 cell
same,wrinkle formation (skin replicas) in comparison with UV-treated Group,[3],remarkable decrease in wrinkle formation
same,"Rt, Rm, Rz and Ra values (degree of wrinkle formation)",[3],significantly reduced
same,wrinkle formation (skin replicas) compared with UV-treated Group,[4],remarkable decrease in wrinkle formation
same,"Rt, Rm, Rz and Ra values (degree of wrinkle formation)",[4],significantly reduced
same,TEWL,[5],24.8 g/m^2/hr
same,TEWL,[6],19.6 g/m^2/hr
same,Degree of skin elasticity,[7],76.9%
same,Degree of skin elasticity,[8],85.6%
"COc1cc(OC)c2c(=O)cc(-c3ccccc3)oc2c1 [5,7-dimethoxyflavone]",inhibition of Collagenase-1 (MMP-1) activity induced by UV light,[1],excellent for inhibiting Collagenase-1 (MMP-1) activity
same,Content of Collagen,[2],236.7 ng/10^5 cell
same,wrinkle formation (skin replicas) in comparison with UV-treated Group,[3],remarkable decrease in wrinkle formation
same,"Rt, Rm, Rz and Ra values (degree of wrinkle formation)",[3],significantly reduced
same,wrinkle formation (skin replicas) compared with UV-treated Group,[4],remarkable decrease in wrinkle formation
same,"Rt, Rm, Rz and Ra values (degree of wrinkle formation)",[4],significantly reduced
same,TEWL,[5],19.4 g/m^2/hr
same,TEWL,[6],16.4 g/m^2/hr
same,Degree of skin elasticity,[7],83.5%
same,Degree of skin elasticity,[8],77.3%
